Test results: patent publication US8168651B2, “Protein kinase modulators” (Cylene Pharmaceuticals, Inc., priority 2008, dated 2012)
Read-outs that look alike come from different tables or passages of the source.

Experiments:
[1] = molecular target: recombinant human PIM1 (Homo sapiens (Human), UniProt P11309); assay: PIM-1 kinase activity in cell-free in vitro assay; type: biochemical; conditions: cell-free assay; for inhibition at 0.5 µM / PIM-1: % inh 500 nM: 500 nM compound; for inhibition at 0.5 µM: read-out: PIM-1: % inh 500 nM
[2] = system: Jurkat; assay: Cell proliferation modulatory activity, Jurkat; type: cell-based
[3] = system: HCT-116 human colorectal carcinoma cells; assay: Cell-proliferation assay using Alamar Blue dye; type: cell-based; conditions: Homo sapiens, HCT-116, HCT-116, second HCT-116 column (c8); read-out: HCT-116 (uM), cell proliferation modulatory activity;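 note: cells exposed to compound for about 4 days, then Alamar Blue added and dye fluorescence read after about 4 h, compared with medium-only control wells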

Chain of recombinant human PIM1 (P11309 whole entry): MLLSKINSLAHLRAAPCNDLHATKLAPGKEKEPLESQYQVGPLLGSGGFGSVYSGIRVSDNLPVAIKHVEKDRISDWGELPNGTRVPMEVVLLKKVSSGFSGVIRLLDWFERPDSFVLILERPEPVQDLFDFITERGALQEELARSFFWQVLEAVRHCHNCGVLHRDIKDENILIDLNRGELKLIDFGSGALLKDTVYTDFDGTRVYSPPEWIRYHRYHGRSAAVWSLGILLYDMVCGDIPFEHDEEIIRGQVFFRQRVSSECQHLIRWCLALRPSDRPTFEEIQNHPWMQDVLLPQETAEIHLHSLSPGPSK

Row | SMILES | inhibition at 0.5 µM [1] | IC50 ([2]; Homo sapiens) | IC50 [3] | IC50 [1] | PIM-1: % inh 500 nM [1] | IC50 [2]
1 | CCCNc1ncc2c(n1)c(Nc1ccccc1)nc1cc(C(=O)O)ccc12 | 29.9% | 4.53 µM | – | – | – | –
2 | COCCNc1ncc2c(n1)c(Nc1ccccc1)nc1cc(C(=O)O)ccc12 | 19.8% | 5.8 µM | – | – | – | –
3 | O=C(O)c1ccc2c(c1)nc(Nc1ccccc1)c1nc(NCCCO)ncc12 | 49.3% | 7.9 µM | – | – | – | –
4 | C#Cc1cccc(Nc2nc3cc(C(=O)O)ccc3c3cnc(NCCC)nc23)c1 | 45.6% | 2.67 µM | – | – | – | –
5 | C#Cc1cccc(Nc2nc3cc(C(=O)O)ccc3c3cnc(NCCCN4CCOCC4)nc23)c1 | 41.6% | 3.69 µM | – | – | – | –
6 | CN(C)c1ncc2c(n1)c(Nc1cccc(Cl)c1)nc1cc(C(=O)O)ccc12 | – | 5.83 µM | > 10 µM | – | – | –
7 | Nc1ncc2c(n1)c(Nc1cccc(Cl)c1)nc1cc(C(=O)O)ccc12 | 85.7% | 1.14 µM | – | – | – | –
8 | Nc1ncc2c(n1)c(Nc1ccc(F)c(Cl)c1)nc1cc(C(=O)O)ccc12 | 38.8% | 4.34 µM | – | – | – | –
9 | COCCNc1ncc2c(n1)c(Nc1ccc(F)c(Cl)c1)nc1cc(C(=O)O)ccc12 | 22.9% | 0.413 µM | – | – | – | –
10 | C#Cc1cccc(Nc2nc3cc(C(=O)O)ccc3c3cnc(NCCCOCC)nc23)c1 | 2.19% | 0.389 µM | – | – | – | –
11 | C#Cc1cccc(Nc2nc3cc(C(=O)O)ccc3c3cnc(NCCCOC(C)C)nc23)c1 | -1.78% | 2.37 µM | – | – | – | –
12 | COC(=O)c1ccc2c(c1)nc(Nc1cccc(Cl)c1)c1nc(NCCC(N)=O)ncc12 | -12.6% | 4.41 µM | – | – | – | –
13 | O=C(O)c1ccc2c(c1)nc(Nc1cc(F)cc(F)c1)c1nc(NC3CC3)ncc12 | 48.9% | 6.02 µM | – | – | – | –
14 | COc1cccc(Nc2nc3cc(C(=O)O)ccc3c3cnc(NC4CC4)nc23)c1 | 36.5% | 3.44 µM | – | – | – | –
15 | CN(C)CCNc1ncc2c(n1)c(Nc1ccc(F)c(Cl)c1)nc1cc(C(=O)O)ccc12 | 53% | 1.25 µM | – | – | – | –
16 | O=C(O)c1ccc2c(c1)nc(Nc1ccc(F)c(Cl)c1)c1nc(NCc3ccccn3)ncc12 | 59.1% | 2.59 µM | – | – | – | –
17 | COC(CNc1ncc2c(n1)c(Nc1ccc(F)c(Cl)c1)nc1cc(C(=O)O)ccc12)OC | 57.6% | 1.12 µM | – | – | – | –
18 | O=C(NC1CC1)c1ccc2c(c1)nc(Nc1cccc(C(F)(F)F)c1)c1nc(NC3CC3)ncc12 | 16.7% | 3.92 µM | – | – | – | –
19 | CNC(=O)c1ccc2c(c1)nc(Nc1cccc(C(F)(F)F)c1)c1nc(NC3CC3)ncc12 | 16.2% | 3.65 µM | – | – | – | –
20 | O=C(O)c1ccc2c(c1)nc(Nc1ccc(F)c(Cl)c1)c1nc(NCc3cccnc3)ncc12 | 19.6% | 1.5 µM | – | – | – | –
21 | O=C(O)c1ccc2c(c1)nc(Nc1ccccc1)c1nc(Nc3ccccc3)ncc12 | 13% | 8.98 µM | – | – | – | –
22 | CCOC(=O)CCNC(=O)c1ccc2c(c1)nc(Nc1cccc(C(F)(F)F)c1)c1nc(NC3CC3)ncc12 | 10.5% | 7.24 µM | – | – | – | –

Row | SMILES | inhibition at 0.5 µM [1] | IC50 ([2]; Homo sapiens) | IC50 [3] | IC50 [1] | PIM-1: % inh 500 nM [1] | IC50 [2]
23 | CN(C)c1ncc2c(n1)c(NC1CC1)nc1cc(C(=O)O)ccc12 | -38.5% | > 50 µM | > 10 µM | – | – | –
24 | C#Cc1cccc(Nc2nc3cc(C(N)=O)ccc3c3cncnc23)c1 | -38.1% | 31.5 µM | > 10 µM | – | – | –
25 | CC(=O)Nc1ccc2c(c1)nc(Nc1cccc(C(F)(F)F)c1)c1nc(NC3CC3)ncc12 | -39.8% | 1.22 µM | > 10 µM | – | – | –
26 | O=C(O)c1ccc2c(c1)nc(NC1CC1)c1nc(NCCO)ncc12 | 22.4% | > 50 µM | – | – | – | –
27 | O=C(O)c1ccc2c(c1)nc(NC1CC1)c1nc(NCCN3CCOCC3)ncc12 | 41.2% | 21 µM | > 10 µM | – | – | –
28 | O=C(O)c1ccc2c(c1)nc(NC1CC1)c1nc(NC(CO)c3ccccc3)ncc12 (stereo not drawn) | -22.8% | 27.5 µM | > 10 µM | – | – | –
29 | O=C(O)c1ccc2c(c1)nc(NC1CC1)c1nc(NNCCO)ncc12 | -37% | > 50 µM | > 10 µM | – | – | –
30 | O=C(O)c1ccc2c(c1)nc(NC1CC1)c1nc(NC3CCNCC3)ncc12 | 18.9% | > 50 µM | > 10 µM | – | – | –
31 | COC(=O)c1ccc2c(c1)nc(N)c1nc(SC)ncc12 | -13.2% | 1.14 µM | 4.77 µM | – | – | –
32 | C#Cc1cccc(Nc2nc3cc(C(=O)NC)ccc3c3cncnc23)c1 | -28.3% | 1.95 µM | 7.17 µM | – | – | –
33 | C#Cc1cccc(Nc2nc3cc(C(=O)NC4CC4)ccc3c3cncnc23)c1 | -13.1% | 1.54 µM | 3.49 µM | – | – | –
34 | O=C(O)c1ccc2c(c1)nc(NC1CC1)c1nc(Nc3ccc(F)cc3)ncc12 | 49.3% | 5.02 µM | > 10 µM | 1.07 µM | – | –
35 | O=C(O)c1ccc2c(c1)nc(NC1CC1)c1nc(Nc3ccc(F)c(Cl)c3)ncc12 | 8.76% | 26.6 µM | > 10 µM | – | – | –
36 | COc1ccc(Nc2ncc3c(n2)c(NC2CC2)nc2cc(C(=O)O)ccc23)cc1Cl | 38.7% | 9.17 µM | 2.31 µM | – | – | –
37 | O=C(O)c1ccc2c(c1)nc(NC1CC1)c1nc(Nc3cccc4ccccc34)ncc12 | 22.9% | 23.3 µM | > 10 µM | – | – | –
38 | Cc1ccccc1Nc1ncc2c(n1)c(NC1CC1)nc1cc(C(=O)O)ccc12 | 52.8% | 18.6 µM | > 10 µM | 0.994 µM | – | –
39 | CCOc1cccc(Nc2ncc3c(n2)c(NC2CC2)nc2cc(C(=O)O)ccc23)c1 | 32.8% | 5.17 µM | 3.77 µM | – | – | –
40 | CCOc1ccc(Nc2ncc3c(n2)c(NC2CC2)nc2cc(C(=O)O)ccc23)cc1 | 45.9% | 9.26 µM | > 10 µM | – | – | –
41 | CC(C)Oc1ccc(Nc2ncc3c(n2)c(NC2CC2)nc2cc(C(=O)O)ccc23)cc1 | 26.3% | 18.9 µM | > 10 µM | – | – | –
42 | CC(=O)Nc1cccc(Nc2ncc3c(n2)c(NC2CC2)nc2cc(C(=O)O)ccc23)c1 | 32% | > 62.5 µM | > 10 µM | – | – | –
43 | O=C(O)c1ccc2c(c1)nc(NC1CC1)c1nc(Nc3cc(F)ccc3F)ncc12 | 50.4% | 15.7 µM | > 10 µM | > 1.1 µM | – | –
44 | O=C(O)c1ccc2c(c1)nc(NC1CC1)c1nc(Nc3cc(F)cc(F)c3)ncc12 | 46.3% | 35.4 µM | > 10 µM | – | – | –

Row | SMILES | inhibition at 0.5 µM [1] | IC50 ([2]; Homo sapiens) | IC50 [3] | IC50 [1] | PIM-1: % inh 500 nM [1] | IC50 [2]
45 | Nc1nc2cc(C(=O)O)ccc2c2cnc(NC3CC3)nc12 | 0.938% | 55.2 µM | > 10 µM | – | – | –
46 | O=C(O)c1ccc2c(c1)nc(Nc1ccc(Oc3ccccc3)cc1)c1ccncc12 | 57.2% | 22.9 µM | > 10 µM | > 1.1 µM | – | –
47 | C#Cc1cccc(Nc2nc3cc(C(=O)N4CCCC4)ccc3c3cncnc23)c1 | -7.6% | 13.3 µM | > 10 µM | – | – | –
48 | C#Cc1cccc(Nc2nc3cc(C(=O)N4CCOCC4)ccc3c3cncnc23)c1 | -17.6% | > 30 µM | > 10 µM | – | – | –
49 | C#Cc1cccc(Nc2nc3cc(C(=O)N(C)c4ccccc4)ccc3c3cncnc23)c1 | -11.2% | 18.8 µM | > 10 µM | – | – | –
50 | C#Cc1cccc(Nc2nc3cc(C(=O)NCc4ccc(C#N)cc4)ccc3c3cncnc23)c1 | -14.6% | 9.09 µM | > 10 µM | – | – | –
51 | C#Cc1cccc(Nc2nc3cc(C(=O)N(C)CCN(C)C)ccc3c3cncnc23)c1 | -15.5% | 4.37 µM | 4.39 µM | – | – | –
52 | C#Cc1cccc(Nc2nc3cc(C(=O)N4CCCN(C)CC4)ccc3c3cncnc23)c1 | -11.2% | 3.22 µM | > 10 µM | – | – | –
53 | CSc1ncc2c(n1)c(N(C)c1ccccc1)nc1cc(C(=O)O)ccc12 | 48.4% | > 30 µM | > 10 µM | 1.09 µM | – | –
54 | COC(=O)c1ccc2c(c1)nc(Nc1ccccc1C)c1nc(S(C)(=O)=O)ncc12 | 25.3% | > 30 µM | > 10 µM | – | – | –
55 | Cc1c(-c2cc(Nc3nc4cc(C(=O)O)ccc4c4cnccc34)n(C)n2)sc2ccc(Cl)cc12 | 4.53% | 19.6 µM | > 10 µM | – | – | –
56 | Cc1ccc(Nc2nc3cc(C(=O)O)ccc3c3cnccc23)nc1 | 48.3% | 1.26 µM | > 10 µM | > 1.1 µM | – | –
57 | O=C(O)c1ccc2c(c1)nc(N1CCC(c3ccccc3)C1)c1ccncc12 (stereo not drawn) | 1.04% | > 30 µM | > 10 µM | – | – | –
58 | O=C(O)c1ccc2c(c1)nc(Nc1cccc(Oc3ccccc3)c1)c1ccncc12 | 44.1% | > 30 µM | > 10 µM | – | – | –
59 | O=C(O)c1ccc2c(c1)nc(Nc1ccc(OC(F)(F)F)cc1)c1ccncc12 | 68.3% | 4.7 µM | > 10 µM | 0.668 µM | – | –
60 | COc1cc(Nc2nc3cc(C(=O)O)ccc3c3cnccc23)ccc1C | 75.8% | 10.7 µM | > 10 µM | 0.744 µM | – | –
61 | Cc1ccc(C(N)=O)cc1Nc1nc2cc(C(=O)O)ccc2c2cnccc12 | 9.95% | > 30 µM | > 10 µM | – | – | –
62 | O=C(O)c1ccc2c(c1)nc(Nc1cncc(C3CC3)c1)c1ccncc12 [drawing 1619] | – | > 50 µM | > 10 µM | – | – | –
63 | CC1CCCCN1CCCNc1ncc2c(n1)c(Nc1ccc(F)c(Cl)c1)nc1cc(C(=O)O)ccc12 (stereo not drawn) [drawing 1629] | 38.9% | 2.86 µM | – | – | – | –
64 | COc1cccc(Nc2ncc3c(n2)c(NC2CC2)nc2cc(C(=O)O)ccc23)c1 [drawing 1717] | – | – | – | – | 5.494% | 54.6 µM
65 | COc1cccc(Nc2ncc3c(n2)c(NC2CC2)nc2cc(C(=O)O)ccc23)c1 [drawing 1720] | – | – | – | 0.97 µM | 60.859% | 3.15 µM
